Values of other authors in US9446004B2, “Transdermal nicotine salt delivery system” (ALZA Corporation, priority 2005, dated 2016).
Where two headings read alike, the source gives them in different places.

CN1CCCC1c1cccnc1 (centres unmarked) [Nicotine]
pKa (first pKa): about 8 | pKa (second pKa): ~3
